In patent US20230255906A1, “Targeting Serpin B9 in Cancer” (The Brigham and Women`s Hospital, Inc., priority 2020, published 2023):

How the values were obtained:
4T1 breast tumors = experiment: 4T1 breast tumor model in BALB/c mice; type: in vivo, mouse; conditions: i.p. twice a day 14 days
Experimental: (§1) Mice were anesthetized with isoflurane, and tumor cell lines (B16, A375, and 4T1) were gently injected subcutaneously in the flanks or mammary glands of mice. One hundred thousand cells (1×10^5 cells) were injected per mouse for most of the experiments. However, twenty-five thousand cells (25×10^3 cells) were injected per mouse for the experiments using the compound of Formula (III). Upon 4 hrs post-implantation, 300 μg of the compound of Formula (III) was administered twice a day intraperitoneally for 14 days. Tumor growth was monitored three times per week by digital caliper (Fisherbrand™ Traceable™ Digital Calipers).
Sb9 is highly expressed in human primary breast tumor cells (FIG. 6D) and in the stromal cells within the TME (FIGS. 6D-6E). Whether the compound of Formula (III) could be used to treat mice implanted with 4T1 breast tumor cells was therefore determined. […] Treatment with the compound of Formula (III) increased the median survival time (MST) of mice bearing 4T1 breast tumors and receiving treatment with the compound of Formula (III) as compared to mice bearing 4T1 breast tumors and not receiving treatment (MST=28 days vs MST=22 days, respectively) (FIG. 6G).
For mouse Breast Cancer model, 1×10^5 4T1 cells were subcutaneously implanted into the fourth mammary pad of BABL/c mice, and mice were separated randomly into three groups: Control, compound of Formula (I), and compound of Formula (II). In the compound of Formula (I) group, mice were treated with the compound of Formula (I) for 14 days consecutively ([…], i.p, twice a day). In the compound of Formula (II) group, mice were administrated the compound of Formula (II) 14 days consecutively (300 μg/mouse, i.p, twice a day). Tumor sizes were measured every 3 days from day 5 post-tumor implantation and calculated with formula length×width^2/2.

cancer cells = experiment: Caspase-3 immunofluorescence in cancer cells; type: cell-based; conditions: 200 μM, 48 hrs
Experimental: 1×10^4 cancer cells were seeded in an 8-well chamber and treated with 200 μM of the compounds of Formulas (I) and (II) for 48 hrs. Controls were the equal amount of DMSO. Cells were stained with anti-caspase3. DAPI was used to counterstain the cell nuclei. The stained tissue sections were visualized using an EVOS™ FL Auto 2 Imaging System.

MBP-Sb9 = target: T1, MBP-Sb9 (Homo sapiens, UniProt P50453); experiment: Saturation-Transfer Difference (STD) NMR assay; type: binding; conditions: 420 μM compound, 45 μM Sb9 protein, PBS pH 7.0, 25° C.
T1 construct: made in house
T1 sequence (P50453 2-376): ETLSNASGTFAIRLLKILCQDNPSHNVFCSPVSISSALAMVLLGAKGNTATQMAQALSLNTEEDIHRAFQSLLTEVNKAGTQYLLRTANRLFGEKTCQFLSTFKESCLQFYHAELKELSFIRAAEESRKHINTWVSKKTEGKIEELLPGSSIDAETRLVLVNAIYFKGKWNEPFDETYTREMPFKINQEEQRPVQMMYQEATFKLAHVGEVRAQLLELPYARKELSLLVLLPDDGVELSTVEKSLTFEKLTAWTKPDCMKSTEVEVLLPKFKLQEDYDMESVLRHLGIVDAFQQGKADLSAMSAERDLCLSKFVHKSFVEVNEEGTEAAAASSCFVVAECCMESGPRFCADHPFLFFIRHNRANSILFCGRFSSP
Source text: The Saturation-Transfer Difference (STD) NMR assay was used to evaluate the binding of the compound of Formula (III) to Sb9. […] The saturation period was 3.0 seconds with irradiation at 0 ppm (on-resonance excitation) and −20 ppm (off-resonance excitation). The number of scans was 160 for the on and off-resonance spectra, respectively. Spectra were processed using Topspin software and apodized with exponential multiplication with 1.0 Hz line-broadening.
The Saturation-Transfer Difference (STD) NMR assay was used to evaluate the binding of the compounds of Formulas (I) and (II) to Sb9. […] The saturation period was 3.0 seconds with irradiation at 0.7 ppm (on-resonance excitation) and 20 ppm (off-resonance excitation). The number of scans was 800. The spectra were processed using Topspin software with 1.0 Hz line-broadening.
The Saturation-Transfer Difference (STD) NMR assay as described herein was used to evaluate the binding of the compound of Formula (III) to Sb9.

[1] = tested on: B16-WT mouse melanoma tumors; experiment: B16 melanoma tumor model in C57BL/6 mice; type: in vivo
Experimental: as §1
The anti-tumor activity of the compound of Formula (III) in vivo was assessed. […] Treatment with the compound of Formula (III) increased the median survival time (MST) of mice bearing B 16-WT mouse melanoma tumors and receiving treatment with the compound of Formula (III) as compared to mice bearing B16-WT melanoma tumors and not receiving treatment (MST=39 days vs MST=26 days, respectively) (FIG. 51B). Next, the effect of the compound of Formula (III) on tumor immunity was examined.
The efficacy of the compound of Formula (III) was assessed in C57BL/6J mice (FIG. 18). B16 mouse melanoma cells were implanted subcutaneously into the right flanks of C57BL/6J mice, and the mice were randomized into three groups: (1) no treatment (control), (2) treatment with anti-PD1, and (3) treatment with Formula (III). The mice in the anti-PD1 group received 200 μg of anti-PD1 iv every 3 days, and those in the Formula (III) group received 300 μg of Formula (III) twice a day consecutively for 14 days.
A survival study using the compound of Formula (IV) in mice harboring B16 melanoma was performed. Mice implanted with B16 tumors were treated with the compound of Formula (IV) (n=8) and compared to a control group having B16 tumors and not receiving treatment with the compound of Formula (IV) (n=8).

B16 melanoma cells = experiment: Caspase-3 activity assay (EnzChek Caspase-3 Assay Kit), caspase-3 induction in tumor cells; type: cell-based, mouse; conditions: for Caspase-3 induction, Normalized to Formula (III) (%): relative to compound of Formula (III)
How it was run: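 B16 melanoma cells exposed to compounds for 24 h, lysed on ice 30 min, and lysate incubated with Z-DEVD-R110 substrate about 30 min at room temperature. Fluorescence read at ~496/520 nm against untreated-cell and no-enzyme controls; caspase-3 induction serves as surrogate for GrB activity from Sb9 inhibition.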

COC(=O)c1cc(N)c(O)cc1NC(=O)OC(C)(C)C [Formula (I), methyl 5-amino-2-((tert-butoxycarbonyl)amino)-4-hydroxybenzoate]
tumor size vs Control group (4T1 breast tumors; Day 11 post-tumor implantation): significantly decreased
tumor size vs Control group (4T1 breast tumors; Day 14 post-tumor implantation): significantly decreased
caspase-3 expression compared to DMSO (cancer cells): significantly increased caspase-3 expression
binding to MBP-Sb9 by STD NMR (MBP-Sb9): confirmed the binding activities

COC(=O)c1cc(N)c(O)cc1NC(=O)c1ccccc1 [Formula (II), methyl 5-amino-2-benzamido-4-hydroxybenzoate]
tumor size vs Control group (4T1 breast tumors; Day 14 post-tumor implantation): significantly decreased
caspase-3 expression compared to DMSO (cancer cells): significantly increased caspase-3 expression
increase of caspase-3 expression, comparison between compounds (cancer cells): higher than the group treated with the compound of Formula (I)
binding to MBP-Sb9 by STD NMR (MBP-Sb9): confirmed the binding activities

NC(=O)c1ccc(O)c(O)c1 [Formula (IV), 3,4-dihydroxybenzamide]
tumor size vs Control group ([1]; Day 22 post-tumor implantation (FIG. 17A)): decreased
melanoma progression in vivo ([1]; mice bearing B16 tumors, n=8 (FIG. 17A)): suppressed melanoma progression
median survival time (MST) ([1]; mice bearing B16 tumors, n=8 (FIG. 17B)): 34 days
binding to MBP-Sb9 by STD NMR (MBP-Sb9): clearly show inter-molecular interaction of all aromatic peaks

CCOc1ccc(C(=O)NCC2CCOCC2)cc1O [4-ethoxy-3-hydroxy-N-[(oxan-4-yl)methyl]benzamide]
Caspase-3 induction, Normalized to Formula (III) (%) (B16 melanoma cells): −30.8469%

COCCCNC(=O)c1ccc2nc(C3CCCCC3)oc2c1 [2-cyclohexyl-N-(3-methoxypropyl)-1,3-benzoxazole-6-carboxamide]
Caspase-3 induction, Normalized to Formula (III) (%) (B16 melanoma cells): −42.1813%

CN(C)c1nc2cccc(C(=O)N3CCCC3)c2o1 [N,N-dimethyl-7-(pyrrolidine-1-carbonyl)-1,3-benzoxazol-2-amine]
Caspase-3 induction, Normalized to Formula (III) (%) (B16 melanoma cells): −21.0312%

COCCCNC(=O)c1ccc2nc(-c3cc(Cl)cc(Cl)c3)oc2c1 [2-(3,5-dichlorophenyl)-N-(3-methoxypropyl)-1,3-benzoxazole-6-carboxamide]
Caspase-3 induction, Normalized to Formula (III) (%) (B16 melanoma cells): −31.5901%

CCN(C)C(=O)c1ccc2nc(-c3ccccc3)oc2c1 [N-ethyl-N-methyl-2-phenyl-1,3-benzoxazole-6-carboxamide]
Caspase-3 induction, Normalized to Formula (III) (%) (B16 melanoma cells): −76.883%

COCCCNC(=O)Cc1ccc2ocnc2c1 [2-(1,3-benzoxazol-5-yl)-N-(3-methoxypropyl)acetamide]
Caspase-3 induction, Normalized to Formula (III) (%) (B16 melanoma cells): −31.2011%

COC(=O)CCCNC(=O)c1ccc2nc(-c3cccc(OC)c3)oc2c1 [methyl 4-({[2-(3-methoxyphenyl)-1,3-benzoxazol-6-yl]carbonyl}amino)butanoate]
Ratio of caspase-3 activity to Formula (III) (B16 melanoma cells): 0.3858

O=C(c1ccc2oc(-c3cccc(F)c3)nc2c1)N1CCCCC1CO (centres unmarked) [(1-{[2-(3-fluorophenyl)-1,3-benzoxazol-5-yl]carbonyl}-2-piperidinyl)methanol]
Ratio of caspase-3 activity to Formula (III) (B16 melanoma cells): 1.133

O=C(NCCc1ccco1)c1ccc2oc(-c3cccc(F)c3)nc2c1 [2-(3-fluorophenyl)-N-[2-(2-furyl)ethyl]-1,3-benzoxazole-5-carboxamide]
Ratio of caspase-3 activity to Formula (III) (B16 melanoma cells): 0.09438

CCOC(=O)C1CCCN(C(=O)c2ccc3nc(-c4cccc(OC)c4)oc3c2)C1 (centres unmarked) [ethyl 1-{[2-(3-methoxyphenyl)-1,3-benzoxazol-6-yl]carbonyl}-3-piperidinecarboxylate]
Ratio of caspase-3 activity to Formula (III) (B16 melanoma cells): 0.1363

CCN(CCN(C)C)C(=O)c1cnc2c(c1)nc(-c1ccccc1Cl)n2C [2-(2-chlorophenyl)-N-[2-(dimethylamino)ethyl]-N-ethyl-3-methyl-3H-imidazo[4,5-b]pyridine-6-carboxamide]
Ratio of caspase-3 activity to Formula (III) (B16 melanoma cells): 1.106

CN(C)c1nc2c(C(=O)NCc3ccccc3)cccc2o1 [N-benzyl-2-(dimethylamino)-1,3-benzoxazole-4-carboxamide]
Caspase-3 induction, Normalized to Formula (III) (%) (B16 melanoma cells): 61.2163%

O=C(NCc1ccccc1)c1ccc2nc(C(F)(F)C(F)(F)F)oc2c1 [N-benzyl-2-(1,1,2,2,2-pentafluoroethyl)-1,3-benzoxazole-6-carboxamide]
Caspase-3 induction, Normalized to Formula (III) (%) (B16 melanoma cells): −48.3904%

COc1cc(C(=O)NCC2CCCC2)ccc1OCCC(C)C [N-(cyclopentylmethyl)-3-methoxy-4-(3-methylbutoxy)benzamide]
Caspase-3 induction, Normalized to Formula (III) (%) (B16 melanoma cells): −50.1028%

COc1cc(Br)c(C(=O)NCC(C)C)cc1OC [2-bromo-4,5-dimethoxy-N-(2-methylpropyl)benzamide]
Caspase-3 induction, Normalized to Formula (III) (%) (B16 melanoma cells): −58.9646%

O=C(c1ccc2oc(-c3cccc(F)c3)nc2c1)N1CCOc2ccccc2C1 [4-{[2-(3-fluorophenyl)-1,3-benzoxazol-5-yl]carbonyl}-2,3,4,5-tetrahydro-1,4-benzoxazepine]
Ratio of caspase-3 activity to Formula (III) (B16 melanoma cells): 0.1627

CCN(C)C(=O)c1ccc2nc(C3CCCCC3)oc2c1 [2-cyclohexyl-N-ethyl-N-methyl-1,3-benzoxazole-6-carboxamide]
Caspase-3 induction, Normalized to Formula (III) (%) (B16 melanoma cells): 1.1915%

CN(Cc1ccncn1)C(=O)c1ccc2oc(-c3ccc(C(F)(F)F)cc3)nc2c1 [N-methyl-N-(4-pyrimidinylmethyl)-2-[4-(trifluoromethyl)phenyl]-1,3-benzoxazole-5-carboxamide]
Ratio of caspase-3 activity to Formula (III) (B16 melanoma cells): 0.1443

COc1cccc(-c2nc3ccc(C(=O)NCC(C)(C)CO)cc3o2)c1 [N-(3-hydroxy-2,2-dimethylpropyl)-2-(3-methoxyphenyl)-1,3-benzoxazole-6-carboxamide]
Ratio of caspase-3 activity to Formula (III) (B16 melanoma cells): 0.6716

COc1cccc(-c2nc3ccc(C(=O)N(C)CCC4CCCCO4)cc3o2)c1 (centres unmarked) [2-(3-methoxyphenyl)-N-methyl-N-[2-(tetrahydro-2H-pyran-2-yl)ethyl]-1,3-benzoxazole-6-carboxamide]
Ratio of caspase-3 activity to Formula (III) (B16 melanoma cells): 0.1405
